Test results: patent publication US20240408093A1, “HETEROBIFUNCTIONAL COMPOUNDS AND THEIR USE IN TREATING DISEASE” (HALDA THERAPEUTICS OPCO, INC., priority 2022, published 2024)

Assays:
[1] = target: T1, KRAS G12C (Homo sapiens, UniProt P01116, G12C); experiment: KRAS G12C cellular target engagement assay (SW1573 cells); assay type: cell-based; set-up: host or cells: SW1573; details: 17 hours, read-out: TE50 (the source's name)
Experimental: SW1573 cells (ATCC CRL-2170) were cultured in RPMI 1640 (Gibco A1049101), supplemented with 10% Heat-inactivated FBS (Gibco Cat. #A38400-01) and 1% Penicillin/Streptomycin (Gibco Cat. #15140-122) in an incubator set at 37° C. and 5% CO2. Cells were seeded at 100,000 cells/ml in 1 ml of complete media in a 24-well, tissue culture-treated plate (Falcon 353226) and incubated overnight. Cells were treated with increasing concentrations of compound and let incubate at 37C and 5% CO2 for 17 hours, after which media was aspirated and cells were lysed in 75 uL RIPA Lysis and Extraction Buffer (Thermo 89901) supplemented with 5 mM MgCl2, Protease and Phosphatase inhibitor cocktail (Thermo 1861281), and Universal Nuclease (Thermo 88700). Plates with RIPA were shaken at 4° C. at 600 rpm for 15 min. After shaking samples, they were collected and spun down at 21,000 g for 15 min at 4° C. Following centrifugation, ˜10 ug of lysate was added to Laemmli Sample Buffer (Bio-Rad 1610747) plus 10% beta-mercaptoethanol, boiled for 15 minutes at 65° C. and loaded onto 12% Mini-PROTEAN TGX™ Precast Protein Gels (Bio-Rad). Protein was transferred to a nitrocellulose membrane (Thermo LC2000) using the iBlot 2 Dry Blotting System (Thermo). After transfer, membranes were washed in 1× TBST (Bioland Scientific LLC TBST0103) 3× for 5 min. Following the wash, blocking buffer (Rockland MB-070) was added for 1 hour at room temperature. Primary antibodies against KRAS (LifeSpan Bio LS-C175665) and actin (Cell Signaling Technology 8457) were added overnight at 4° C. Membranes were then washed again 3× for 5 min in 1× TBST. Secondary antibodies (LI-COR 926-68072 and 926-68073) were added and shaken for 1 hr at room temperature. Membranes were then washed 3× for 5 min in 1×TBST and developed. Membranes were placed on an Odyssey imager (LI-COR).
Target sequence in this assay (P01116 1-188 isoform P01116-2 G12C): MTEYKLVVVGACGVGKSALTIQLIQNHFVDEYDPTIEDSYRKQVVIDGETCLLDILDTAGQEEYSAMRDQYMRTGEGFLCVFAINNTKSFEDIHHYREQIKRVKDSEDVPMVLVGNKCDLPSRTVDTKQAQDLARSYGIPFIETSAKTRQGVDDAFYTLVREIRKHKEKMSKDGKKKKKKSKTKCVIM

[2] = target: T1, KRAS G12C; experiment: KRAS G12C nucleotide exchange assay (SOS1-mediated, HTRF); assay type: biochemical; set-up: GST-tagged KRAS G12C (amino acids 2-169); details: 1 hr pre-incubation
Experimental: KRAS target engagement (IC50 determination) was performed using a KRAS G12C nucleotide exchange assay. Specifically, compounds were tested against KRAS G12C in 10-point concentration IC50 mode with 3-fold serial dilution at a starting concentration of 10 μM. ARS1620 was used as a control.
Briefly, GST-tagged KRAS G12C (amino acids 2-169) was mixed with anti-GST Tb antibody (1.5× solution) and 10 μL was delivered to reaction wells. Compounds were delivered using an acoustic dispenser (Echo, Labcyte) and pre-incubated with protein for 1 hr at RT. KRAS/anti-GST Tb Ab/compound mixture was incubated for 1 hour at room temperature. A 3× solution of SOS1 (amino acids 564-1049) and GTP-DY-647P1 (GTP*) was prepared in reaction buffer. A 5 μL aliquot of SOS1/GTP* solution was added to reaction wells to initiate the exchange reaction. No-SOS1 reaction or max compound concentration was used as blank. The final concentrations of KRAS G12C, SOS1, and GTP* were 30 nM, 20 nM, and 0.15 μM, respectively. SOS1 mediated exchange of GDP to GTP-DY-647P was measured using HTRF (Ex/Em=(320-75/665-7.5; 615-8.5)) using an Envision Plate Reader (Perkin Elmer). IC50 determination was performed using a Sigmoidal dose response (variable slope) equation.
Target sequence in this assay (P01116 2-169 isoform P01116-2 G12C): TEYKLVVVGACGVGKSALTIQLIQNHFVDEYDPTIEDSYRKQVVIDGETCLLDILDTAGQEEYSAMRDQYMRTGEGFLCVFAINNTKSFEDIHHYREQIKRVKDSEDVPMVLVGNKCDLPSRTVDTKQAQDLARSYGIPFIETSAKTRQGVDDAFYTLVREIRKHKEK

Row | Compound | EC50 [1] | IC50 [2]
1 | C=C(COc1ccc(CN2C(=O)CCC(N3Cc4cc(CNC(=O)Nc5ccc(C)c(Cl)c5)ccc4C3=O)C2=O)cc1)C(=O)N1CCN(c2nc(OC[C@H]3CCCN3C)nc3c2CCN(c2cccc4cccc(Cl)c24)C3)C[C@@H]1CC#N (stereo in doubt) [Compound I-44] | 250 to 5000 nM | 100 to 5000 nM
2 | C=C(COc1cc(Cl)cc(NC(=O)NCc2ccc3c(c2)CN(C2CCC(=O)NC2=O)C3=O)c1)C(=O)N1CCN(c2nc(OC[C@@H]3CCCN3C)nc3c2CCN(c2cccc4cccc(Cl)c24)C3)C[C@@H]1CC#N (stereo partly drawn) [Compound I-35] | 250 to 5000 nM | < 100 nM
3 | C=C(COc1cc(Cl)c(OC)cc1NC(=O)NCc1ccc2c(c1)CN(C1CCC(=O)NC1=O)C2=O)C(=O)N1CCN(c2nc(OC[C@@H]3CCCN3C)nc3c2CCN(c2cccc4cccc(Cl)c24)C3)C[C@@H]1CC#N (stereo partly drawn) [Compound I-46] | 250 to 5000 nM | < 100 nM
4 | C=C(COc1cc(NC(=O)NCc2ccc3c(c2)CN(C2CCC(=O)NC2=O)C3=O)cc(C(F)(F)F)c1)C(=O)N1CCN(c2nc(OC[C@@H]3CCCN3C)nc3c2CCN(c2cccc4cccc(Cl)c24)C3)C[C@@H]1CC#N (stereo partly drawn) [Compound I-48] | 250 to 5000 nM | < 100 nM
5 | C=C(COc1cccc(NC(=O)NCc2ccc3c(c2)CN(C2CCC(=O)NC2=O)C3=O)c1)C(=O)N1CCN(c2nc(OC[C@@H]3CCCN3C)nc3c2CCN(c2cccc4cccc(Cl)c24)C3)C[C@@H]1CC#N (stereo partly drawn) [Compound I-49] | < 250 nM | < 100 nM
6 | C=C(COc1cc(NC(=O)NCc2ccc3c(c2)CN(C2CCC(=O)NC2=O)C3=O)cc(OC)c1)C(=O)N1CCN(c2nc(OC[C@@H]3CCCN3C)nc3c2CCN(c2cccc4cccc(Cl)c24)C3)C[C@@H]1CC#N (stereo partly drawn) [Compound I-50] | 250 to 5000 nM | < 100 nM
7 | C=C(COc1ccc(Cl)cc1NC(=O)NCc1ccc2c(c1)CN(C1CCC(=O)NC1=O)C2=O)C(=O)N1CCN(c2nc(OC[C@@H]3CCCN3C)nc3c2CCN(c2cccc4cccc(Cl)c24)C3)C[C@@H]1CC#N (stereo partly drawn) [Compound I-52] | 250 to 5000 nM | < 100 nM
8 | C=C(COc1cc(Cl)cc(NC(=O)NCc2ccc3c(c2)CN(C2CCC(=O)NC2=O)C3=O)c1)C(=O)N1CC2(CC(n3nc(-c4ccc5c(cnn5C)c4)c(-c4c(Cl)c(C)cc5[nH]ncc45)c3C)C2)C1 (stereo not drawn) [Compound I-56] | 5000 to 10000 nM | 100 to 5000 nM
9 | C=C(CN(C)c1cccc(NC(=O)NCc2ccc3c(c2)CN(C2CCC(=O)NC2=O)C3=O)c1)C(=O)N1CCN(c2nc(OC[C@@H]3CCCN3C)nc3c2CCN(c2cccc4cccc(Cl)c24)C3)C[C@@H]1CC#N (stereo partly drawn) [Compound I-58] | 5000 to 10000 nM | 5000 to 10000 nM
10 | C=C(COc1cc(F)c(F)cc1NC(=O)NCc1ccc2c(c1)CN(C1CCC(=O)NC1=O)C2=O)C(=O)N1CCN(c2nc(OC[C@@H]3CCCN3C)nc3c2CCN(c2cccc4cccc(Cl)c24)C3)C[C@@H]1CC#N (stereo partly drawn) [Compound I-62] | 250 to 5000 nM | < 100 nM
11 | C=C(COc1ccccc1CNC(=O)NCc1ccc2c(c1)CN(C1CCC(=O)NC1=O)C2=O)C(=O)N1CCN(c2nc(OC[C@@H]3CCCN3C)nc3c2CCN(c2cccc4cccc(Cl)c24)C3)C[C@@H]1CC#N (stereo partly drawn) [Compound I-63] | 250 to 5000 nM | < 100 nM
12 | C=C(COc1cc(Cl)cc(NC(=O)NCc2cc3c(cc2F)C(=O)N(C2CCC(=O)NC2=O)C3)c1)C(=O)N1CCN(c2nc(OC[C@@H]3CCCN3C)nc3c2CCN(c2cccc4cccc(Cl)c24)C3)C[C@@H]1CC#N (stereo partly drawn) [Compound I-64] | 250 to 5000 nM | < 100 nM
13 | C=C(COc1cc(Cl)c(OC)cc1NC(=O)NCc1ccc2c(c1)CN(C1CCC(=O)NC1=O)C2=O)C(=O)N1CC2(CC(n3nc(-c4ccc5c(cnn5C)c4)c(-c4c(Cl)c(C)cc5[nH]ncc45)c3C)C2)C1 (stereo not drawn) [Compound I-66] | 250 to 5000 nM | 100 to 5000 nM
14 | C=C(COc1cc(NC(=O)NCc2ccc3c(c2)CN(C2CCC(=O)NC2=O)C3=O)cc(OC)c1)C(=O)N1CC2(CC(n3nc(-c4ccc5c(cnn5C)c4)c(-c4c(Cl)c(C)cc5[nH]ncc45)c3C)C2)C1 (stereo not drawn) [Compound I-67] | 5000 to 10000 nM | 100 to 5000 nM
15 | C=C(COc1cc(NC(=O)NCc2ccc3c(c2F)CN(C2CCC(=O)NC2=O)C3=O)cc(C(F)(F)F)c1)C(=O)N1CC2(CC(n3nc(-c4ccc5c(cnn5C)c4)c(-c4c(Cl)c(C)cc5[nH]ncc45)c3C)C2)C1 (stereo not drawn) [Compound I-68] | 250 to 5000 nM | 100 to 5000 nM
16 | C=C(COC(=O)c1c(C)csc1NC(=O)NCc1ccc2c(c1)CN(C1CCC(=O)NC1=O)C2=O)C(=O)N1CCN(c2nc(OC[C@@H]3CCCN3C)nc3c2CCN(c2cccc4cccc(Cl)c24)C3)C[C@@H]1CC#N (stereo partly drawn) [Compound I-72, 2-[(2S)-4-[7-(8-chloro-1-naphthyl)-2-[[(2S)-1-methylpyrrolidin-2-yl]methoxy]-6,8-dihydro-5H-pyrido[3,4-d]pyrimidin-4-yl]-2-(cyanomethyl)piperazine-1-carbonyl]allyl 2-[[2-(2,6-dioxo-3-piperidyl)-1-oxo-isoindolin-5-yl]methylcarbamoylamino]-4-methyl-thiophene-3-carboxylate] | 5000 to 10000 nM | < 100 nM
17 | C=C(COC(=O)NCc1cc(Cl)cc(NC(=O)NCc2ccc3c(c2)CN(C2CCC(=O)NC2=O)C3=O)c1)C(=O)N1CCN(c2nc(OC[C@@H]3CCCN3C)nc3c2CCN(c2cccc4cccc(Cl)c24)C3)C[C@@H]1CC#N (stereo partly drawn) [Compound I-73] | < 250 nM | < 100 nM
18 | C=C(COC(=O)NCCCc1cc(Cl)cc(NC(=O)NCc2ccc3c(c2)CN(C2CCC(=O)NC2=O)C3=O)c1)C(=O)N1CCN(c2nc(OC[C@@H]3CCCN3C)nc3c2CCN(c2cccc4cccc(Cl)c24)C3)C[C@@H]1CC#N (stereo partly drawn) [Compound I-74] | < 250 nM | < 100 nM
19 | C=C(COc1cc(NC(=O)NCc2ccc3c(c2)CN(C2CCC(=O)NC2=O)C3=O)cc(F)c1F)C(=O)N1CCN(c2nc(OC[C@@H]3CCCN3C)nc3c2CCN(c2cccc4cccc(Cl)c24)C3)C[C@@H]1CC#N (stereo partly drawn) [Compound I-75] | 5000 to 10000 nM | < 100 nM
20 | C=C(COc1ccc(Cl)cc1NC(=O)NCc1ccc2c(c1)CN(C1CCC(=O)NC1=O)C2=O)C(=O)N1CC2(CC(n3nc(-c4ccc5c(cnn5C)c4)c(-c4c(Cl)c(C)cc5[nH]ncc45)c3C)C2)C1 (stereo not drawn) [Compound I-76] | 250 to 5000 nM | 100 to 5000 nM
21 | C=C(COc1cc(NC(=O)NCc2ccc3c(c2)CN(C2CCC(=O)NC2=O)C3=O)cc(C(F)(F)F)c1)C(=O)N1CC2(CC(n3nc(-c4ccc5c(cnn5C)c4)c(-c4c(Cl)c(C)cc5[nH]ncc45)c3C)C2)C1 (stereo not drawn) [Compound I-77] | 250 to 5000 nM | 100 to 5000 nM
22 | C=C(COC(=O)NCCc1ccc(Cl)cc1NC(=O)NCc1ccc2c(c1)CN(C1CCC(=O)NC1=O)C2=O)C(=O)N1CCN(c2nc(OC[C@@H]3CCCN3C)nc3c2CCN(c2cccc4cccc(Cl)c24)C3)C[C@@H]1CC#N (stereo partly drawn) [Compound I-78] | < 250 nM | < 100 nM
23 | C=C(COC(=O)NCCCc1ccc(Cl)cc1NC(=O)NCc1ccc2c(c1)CN(C1CCC(=O)NC1=O)C2=O)C(=O)N1CCN(c2nc(OC[C@@H]3CCCN3C)nc3c2CCN(c2cccc4cccc(Cl)c24)C3)C[C@@H]1CC#N (stereo partly drawn) [Compound I-79] | < 250 nM | < 100 nM
24 | C=C(COc1ccccc1NC(=O)NCc1ccc2c(c1)CN(C1CCC(=O)NC1=O)C2=O)C(=O)N1CCN(c2nc(OC[C@H]3CCCN3C)nc3c2CCN(c2cccc4cccc(Cl)c24)C3)C[C@H]1CC#N (stereo partly drawn) [Compound I-80] | < 250 nM | < 100 nM
